# According to patent publication US20060148898A1 (priority 2003, published 2006):
# Entries after “also recorded” stand apart in the source; their conditions may differ. Like-named read-outs stand apart in the source and are kept apart here.
# Assays:
# [1] = tested on: male rats of the Wistar-100 line; conditions: rat, in vivo
# [2] = tested on: male rats of the Wistar-100 line; conditions: rat, in vivo; remark: listed apart in the source
# [3] = tested on: male rats of the Wistar-100 line; conditions: rat, in vivo; remark: listed apart in the source
# adult volunteers = conditions: human, in vivo
structure (smiles),measurement,setting,value
"O=S(=O)([O-])CC(S)CS.[Na+] (stereo not shown) [Unithiol, 2,3-Dimercaptopropane-sulfonate Na]",Alanine aminotransferase (ALT) activity in liver homogenates,[1],twice lower
same,"activity of enzymes characterizing damage of hepatocyte membranes (ALT, AST)",[1],reliably lower than in the control group
same,concentration of end products of lipid peroxidation (TBA-positive compounds) in blood plasma,[1],reliably differing from an analogous group without use of Unithiol toward; lowering
same,mean content of vitamin E and A in blood plasma,[1],on the level of values in the control group
same,"content of the main endogenous antioxidants (vitamins E, A, SH-groups)",[1]; po,preserved on the level close to the values in the control group
same,concentration of end products of lipid peroxidation (TBA-positive compounds) in blood plasma,[2],reliably differing from an analogous group without use of Unithiol toward; lowering
same,"content of the main endogenous antioxidants (vitamins E, A, SH-groups)",[2]; po,preserved on the level close to the values in the control group
same,"biochemical parameters of toxic action of ethanol on liver tissue (lipid peroxides, triglycerides, ALT, AST)",[3],oral administration of Unithiol yields essentially better values
same,"biochemical values (MDA, vitamins E and A, SH-groups, ALT, AST, triglycerides)",adult volunteers,did not lead to worsening of the biochemical values; also recorded: restoration of the initial (basic) level of the biochemical values
same,time after intake at which the subjective perception of withdrawal is removed,adult volunteers,8 to 10 min
